From ChEMBL document CHEMBL3994618, “The long story of camptothecin: From traditional medicine to drugs” (Bioorg Med Chem Lett, 2017)

Assay: Drug excretion in human urine upto 24 hrs
Format: ADME
Settings: read-out: Drug excretion

For CC[C@@]1(O)C(=O)OCc2c1cc1n(c2=O)Cc2cc3c(CN(C)C)c(O)ccc3nc2-1 [TOPOTECAN], the dose excreted at 24 h was 40%.
